Broadly, the IC50 is the midpoint of a concentration-inhibition curve.

The text below walks through data of patent publication US9550793B2, “Spirocyclic compounds, compositions and medicinal applications thereof” (Advinus Therapeutics Limited, priority 2012, dated 2017).

Experiment [1] addresses T1, recombinant human DGAT1 (hDGAT1) (Homo sapiens, UniProt O75907).
T1 construct: host or cells: Sf9 insect cells (baculovirus expression system), used as membrane preparation
T1 sequence (O75907 1-488): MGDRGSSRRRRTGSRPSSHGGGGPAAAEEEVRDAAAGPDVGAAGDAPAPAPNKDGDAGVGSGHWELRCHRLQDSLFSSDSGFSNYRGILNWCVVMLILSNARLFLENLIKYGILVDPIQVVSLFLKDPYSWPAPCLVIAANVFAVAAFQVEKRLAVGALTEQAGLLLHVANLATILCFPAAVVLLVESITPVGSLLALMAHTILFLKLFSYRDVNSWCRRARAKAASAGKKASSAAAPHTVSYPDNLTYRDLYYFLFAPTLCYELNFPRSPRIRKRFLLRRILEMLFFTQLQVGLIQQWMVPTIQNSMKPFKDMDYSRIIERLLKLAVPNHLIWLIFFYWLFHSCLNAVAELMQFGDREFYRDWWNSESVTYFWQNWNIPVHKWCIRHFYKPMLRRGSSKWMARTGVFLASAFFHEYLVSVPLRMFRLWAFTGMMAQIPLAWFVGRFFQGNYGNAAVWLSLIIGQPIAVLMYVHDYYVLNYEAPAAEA
Nature of the experiment: Membrane-based recombinant hDGAT1 inhibitory activity using radiometry method (Method B). It counts as biochemical. Conditions: values marked *: Method B (radiometry); Sf9 membranes expressing hDGAT1. The protocol: Measurement of Membrane-Based Recombinant hDGAT1 Inhibitory Activity Using Radiometry Method (Method B):
The determination of recombinant human DGAT1 (hDGAT1) activity was carried out using a Radiometry based assay system based on literature report [European Journal of Medicinal Chemistry (2012), August; 54:324-42]. In brief, baculovirus expression system (Sf9) membranes expressing hDGAT1 were employed for the membrane based assay.
Radiometry hDGAT1 assays were performed using 1 μg of the hDGAT1, pre-incubated with 100 μl of the assay buffer [100 mM Tris-HCl (pH 7.5), 250 mM sucrose, and 1.25 mg/ml fatty acid free BSA] containing a known concentration of the inhibitor and supplemented with 300 μM of 1,2-dioleoylglycerol. The hDGAT1 reaction was initiated following an addition of 16.8 nCi of [14C]-oleoyl CoA. The reaction was terminated after 30 minutes of incubation at 37° C. using 300 μl alkaline ethanol stop solution mix (AESSM) [12.5% of 100% non-denatured ethanol, 10% deionized water, 2.5% NaOH, and 75% stop solution (78.4% isopropanol, 19.6% n-heptane, 2% deionized water)]. The ^14C triglyceride formed in this reaction was extracted using 600 μl of heptane. 250 μl of this extracted heptane was added to scintillation fluid and subjected to radioactivity measurement.

In experiment [2] the target is T1, recombinant human DGAT1 (hDGAT1). Nature of the experiment: Membrane-based recombinant hDGAT1 inhibitory activity using LCMS method (Method A). It counts as biochemical. Conditions: Sf9 membranes expressing hDGAT1.
The next experiment deals with T2, hDGAT1 (Homo sapiens, UniProt O75907).
T2 construct: endogenous in cells; host or cells: HEK293H cells
T2 sequence (O75907 1-488): T1 sequence (O75907 1-488)
In words: Cell based hDGAT1 inhibitory activity in HEK293H cells (13C-oleic acid to triolein, LC-MS). The protocol:
Measurement of Cell Based hDGAT1 Inhibitory Activity:
HEK293H cells were seeded in a 96-well poly-D-lysine plate at a density of 80000 cells per well. Following day, cells were washed with assay buffer-DMEM high glucose supplemented with 25 mM Hepes (pH7.5) carrying 0.25% fatty acid-free bovine serum. The cells were starved in assay buffer at 37° C./5% CO2 followed by removal of media and treatment with appropriate concentrations of the test compound at a final concentration of 0.2% DMSO for 20 min. 13C-Oleic acid pre-complexed with BSA (300 uM) was added and cells were incubated further at […]/5% CO2 for 120 min. The supernatant was removed and the cells were allowed to air dry briefly. The extraction solvent (90% isopropyl alcohol and 10% tetrahydrofuran with 20 nM of the internal standard [1,3-di-heptadecanoyl-2-(10Z-heptadecanoyl)-sn-glycerol-d5) was added to the cells, and allowed to shake at room temperature for 15 min. The extract was then transferred to glass vials for LC-MS analysis. An Applied Biosystems API3200 LC/MS system interfaced with a triplequadrupole mass spectrophotometer through a Turbo ion spray source was employed for the LC separation of the analytes using a Hi-Purity ADVANCE column eluted with 10 mM ammonium formate in IPA-H2O (80:20) at a flow rate of 0.4 mL/min. A characteristic in-source fragment ion m/z 639.7 formed from the precursor ion ^13C-54-triolein (m/z 956.8, ammonium adduct) at a collision energy of 30 and declustering potential 70 was monitored. IC50 values of the compounds were determined based on percent inhibition calculated on the basis of area ratio of product (TG) and internal standard (IS).

Take `O=C(O)CC1CC2(CCN(c3ccc(NC(=O)c4nnc(Nc5ccc(F)c(F)c5)o4)cn3)CC2)C1` [Example B32, 2-[7-[5-[[5-(3,4-difluoroanilino)-1,3,4-oxadiazole-2-carbonyl]amino]-2-pyridyl]-7-azaspiro[3.5]nonan-2-yl]acetic acid]: in experiment [1], the IC50 is 6.9 nM.

Consider `O=C(O)CC1CC2(CCN(c3ccc(NC(=O)c4nnc(Nc5ccccc5F)o4)cn3)CC2)C1` [Example B33, 2-[7-[5-[[5-(2-fluoroanilino)-1,3,4-oxadiazole-2-carbonyl]amino]-2-pyridyl]-7-azaspiro[3.5]nonan-2-yl]acetic acid], for which the IC50 in experiment [1] stood at 26 nM.

Regarding `O=C(Nc1ccc(N2CCC3(CC2)CC(C(=O)O)C3)nc1)c1nnc(Nc2ccccc2)o1` [Example B34, 7-[5-[(5-anilino-1,3,4-oxadiazole-2-carbonyl)amino]-2-pyridyl]-7-azaspiro[3.5]nonane-2-carboxylic acid], the concentration for half-maximal inhibition (IC50) in experiment [1] amounted to 24 nM.

On to `O=C(Nc1ccc(N2CCC3(CC2)CC(C(=O)O)C3)nc1)c1nnc(Nc2cccc(F)c2)o1` [Example B35, 7-[5-[[5-(3-fluoroanilino)-1,3,4-oxadiazole-2-carbonyl]amino]-2-pyridyl]-7-azaspiro[3.5]nonane-2-carboxylic acid], for which the IC50 in experiment [1] stood at 19 nM.

On to `O=C(Nc1ccc(N2CCC3(CC2)CC(C(=O)O)C3)nc1)c1nnc(Nc2ccc(Cl)cc2)o1` [Example B36, 7-[5-[[5-(4-chloroanilino)-1,3,4-oxadiazole-2-carbonyl]amino]-2-pyridyl]-7-azaspiro[3.5]nonane-2-carboxylic acid], for which, in experiment [1], the 50% inhibitory concentration (IC50) was 25 nM.

`O=C(Nc1ccc(N2CCC3(CC2)CC(C(=O)O)C3)nc1)c1nnc(Nc2cccc(C(F)(F)F)c2)o1` [Example B37, 7-[5-[[5-[3-(trifluoromethyl)anilino]-1,3,4-oxadiazole-2-carbonyl]amino]-2-pyridyl]-7-azaspiro[3.5]nonane-2-carboxylic acid]: the IC50 in experiment [1] was found to be 22 nM.

Regarding `O=C(O)CC1CC2(CCN(c3ccc(NC(=O)c4nnc(Nc5ccccc5F)o4)cc3)CC2)C1` [Example B38, 2-[7-[4-[[5-(2-fluoroanilino)-1,3,4-oxadiazole-2-carbonyl]amino]phenyl]-7-azaspiro[3.5]nonan-2-yl]acetic acid], in experiment [1], the half-inhibitory concentration (IC50) amounted to 50 nM.

For the compound `O=C(O)CC1CC2(CCN(c3ccc(NC(=O)c4nnc(Nc5ccccc5)o4)cc3)CC2)C1` [Example B39, 2-[7-[4-[(5-anilino-1,3,4-oxadiazole-2-carbonyl)amino]phenyl]-7-azaspiro[3.5]nonan-2-yl]acetic acid], the IC50 in experiment [1] is 47 nM.

For `O=C(O)CC1CC2(CCN(c3ccc(NC(=O)c4nnc(Nc5ccc(F)c(F)c5)o4)cc3)CC2)C1` [Example B40, 2-[7-[4-[[5-(3,4-difluoroanilino)-1,3,4-oxadiazole-2-carbonyl]amino]phenyl]-7-azaspiro[3.5]nonan-2-yl]acetic acid], the 50% inhibitory concentration (IC50) in experiment [1] came to 20 nM.

Regarding `Nc1ncnc2c1C(=O)N(c1ccc(C3CCC4(CCC(CC(=O)O)CC4)CC3)cc1)CCO2` (stereo not drawn) [Example H3, 2-[9-[4-(4-amino-5-oxo-7,8-dihydropyrimido[5,4-f][1,4]oxazepin-6-yl)phenyl]spiro[5.5]undecan-3-yl]acetic acid], the half-inhibitory concentration (IC50) in experiment [2] came to 42 nM; at hDGAT1, 15 nM.

Consider `Nc1ncnc2c1C(=O)N(c1ccc(C3CCC4(CC3)CC4C(=O)O)cc1)CCO2` (stereo not drawn) [Example I3, 6-[4-(4-amino-5-oxo-7,8-dihydropyrimido[5,4-f][1,4]oxazepin-6-yl)phenyl]spiro[2.5]octane-2-carboxylic acid], for which the IC50 was determined as 54 nM in experiment [2] and 26 nM against hDGAT1.

In the case of `Nc1ncnc2c1C(=O)N(c1ccc(C3CCC4(CC3)CC4C(=O)O)cc1)CCO2` (stereo not drawn) [Example I4, 6-[4-(4-amino-5-oxo-7,8-dihydropyrimido[5,4-f][1,4]oxazepin-6-yl)phenyl]spiro[2.5]octane-2-carboxylic acid], the IC50 in experiment [2] amounted to 94 nM; against hDGAT1, 35 nM.
